According to the supplement of paper PMC10307832:

How the values were obtained:
Experiment in all cases: relative viability (nuclei count vs DMSO), 5 days (fraction); higher = more cells survive
IMD-0354 + OSI-027 = compound: O=C(Nc1cc(C(F)(F)F)cc(C(F)(F)F)c1)c1cc(Cl)ccc1O [IMD-0354] + COc1cccc2cc(-c3nc([C@H]4CC[C@H](C(=O)O)CC4)n4ncnc(N)c34)[nH]c12 [OSI-027] (partner 0.5 µM)
How it was run: (§1)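 Relative viability was taken as the ratio of nuclei in treated wells to nuclei in vehicle wells. Lung cancer cell lines in 1536-well plates received compounds by pin tool one day after seeding, either one drug alone or a fixed anchor-drug dose plus five library-drug doses (not always all listed) in √10 steps. Nuclei were counted on 4× images after 5 days of treatment, and values are medians of duplicate plates.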

IMD-0354 + Alpelisib = compound: O=C(Nc1cc(C(F)(F)F)cc(C(F)(F)F)c1)c1cc(Cl)ccc1O [IMD-0354] + Cc1nc(NC(=O)N2CCC[C@H]2C(N)=O)sc1-c1ccnc(C(C)(C)C(F)(F)F)c1 [Alpelisib] (partner 2 µM)
How it was run: as §1

IMD-0354 + Vorinostat = compound: O=C(Nc1cc(C(F)(F)F)cc(C(F)(F)F)c1)c1cc(Cl)ccc1O [IMD-0354] + O=C(CCCCCCC(=O)Nc1ccccc1)NO [Vorinostat] (partner 1 µM)
How it was run: as §1

IMD-0354 + Linsitinib = compound: O=C(Nc1cc(C(F)(F)F)cc(C(F)(F)F)c1)c1cc(Cl)ccc1O [IMD-0354] + C[C@]1(O)C[C@@H](c2nc(-c3ccc4ccc(-c5ccccc5)nc4c3)c3c(N)nccn32)C1 [Linsitinib] (partner 1 µM)
How it was run: as §1

| Cell Line | relative viability (IMD-0354 + OSI-027; first compound 0.04 µM) | relative viability (IMD-0354 + OSI-027; first compound 0.1265 µM) | relative viability (IMD-0354 + OSI-027; first compound 0.4 µM) | relative viability (IMD-0354 + OSI-027; first compound 1.265 µM) | relative viability (IMD-0354 + OSI-027; first compound 4 µM) | relative viability (IMD-0354 + Alpelisib; first compound 0.04 µM) | relative viability (IMD-0354 + Alpelisib; first compound 0.1265 µM) | relative viability (IMD-0354 + Alpelisib; first compound 0.4 µM) | relative viability (IMD-0354 + Alpelisib; first compound 1.265 µM) | relative viability (IMD-0354 + Alpelisib; first compound 4 µM) | relative viability (IMD-0354 + Vorinostat; first compound 0.04 µM) | relative viability (IMD-0354 + Vorinostat; first compound 0.1265 µM) | relative viability (IMD-0354 + Vorinostat; first compound 0.4 µM) | relative viability (IMD-0354 + Vorinostat; first compound 1.265 µM) | relative viability (IMD-0354 + Vorinostat; first compound 4 µM) | relative viability (IMD-0354 + Linsitinib; first compound 0.04 µM) | relative viability (IMD-0354 + Linsitinib; first compound 0.1265 µM) | relative viability (IMD-0354 + Linsitinib; first compound 0.4 µM) | relative viability (IMD-0354 + Linsitinib; first compound 1.265 µM) | relative viability (IMD-0354 + Linsitinib; first compound 4 µM) |
| --- | --- | --- | --- | --- | --- | --- | --- | --- | --- | --- | --- | --- | --- | --- | --- | --- | --- | --- | --- | --- |
| H3255 | 0.549 | 0.59 | 0.585 | 0.488 | 0.302 | 0.723 | 0.793 | 0.46 | 0.364 | 0.241 | 0.743 | 0.796 | 0.587 | 0.43 | 0.288 | 0.931 | 0.916 | 0.509 | 0.314 | 0.237 |
| NCI-H647 | 0.836 | 0.599 | 0.367 | 0.364 | 0.0879 | 1.77 | 0.995 | 0.623 | 0.144 | 0.173 | 0.76 | 0.603 | 0.3 | 0.128 | 0.0744 | 1.36 | 1.1 | 0.515 | 0.276 | 0.158 |
| NCI-H2023 | 0.484 | 0.382 | 0.274 | 0.105 | 0.108 | 0.696 | 0.577 | 0.439 | 0.312 | 0.122 | 0.7 | 0.738 | 0.464 | 0.127 | 0.104 | 0.81 | 0.569 | 0.558 | 0.197 | 0.121 |
| NCI-H23 | 0.538 | 0.631 | 0.341 | 0.195 | 0.19 | 0.802 | 0.695 | 0.412 | 0.435 | 0.243 | 0.664 | 0.745 | 0.289 | 0.172 | 0.192 | 0.643 | 0.646 | 0.425 | 0.318 | 0.19 |
